From patent US20090264382A1, “Methods for Treating Hematopoietic Neoplasms” (priority 2007, published 2009)

Assays:
[1] = tested on: leukemic cells; assay: Intracellular ROS detection with H2DCFDA; format: cell-based, human; details: after CA4P exposure
Method: Intracellular ROS were detected as previously described (Krejsa & Schieven, Methods Mol Biol 99:35-47 (2000)). Briefly, leukemic cells were loaded with 2 μM H2DCFDA (Molecular Probes) in assay buffer (RPMI with 10 mM HEPES) for 30 min. at 37° C. and mean fluorescent intensity was measured by flow cytometry. Results are shown from triplicate measurements (±SEM) and are representative of three independent experiments (*p<0.05 as compared with untreated cells; n=3).

[2] = tested on: human umbilical cord derived (CB) CD34+ cells; assay: Cord blood CD34+ cell viability and colony formation; format: cell-based
Method: Cord blood CD34+ cells were isolated by magnetic procedure and cultured with recombinant human SCF (50 ng/ml, Peprotech) and CA4P for 48 h. Annexin/PI staining was then performed. CD34+ cells were also cultured in methylcellulose supplemented with cytokines and CA4P (Stem cell technologies, Vancouver, Canada) for 14 days. Colonies were scored. […] As such, CA4P used as single agent can selectively target circulating and or tissue-resident hematopoietic neoplasms without incurring significant hematological toxicity.

[3] = tested on: leukemic cells; assay: Comet assay for DNA damage; format: cell-based, human; details: after CA4P treatment
Method: DNA damage in CA4P-incubated leukemic cells was assessed by comet assay. The concept behind this assay is based upon the ability of denatured, cleaved DNA fragments to migrate out of the cell under the influence of an electric field, whereas undamaged DNA migrates more slowly and remains within the confines of the nucleus. Evaluation of the DNA “comet” tail shape and migration pattern allows for assessment of DNA damage. Results were expressed as the percentage of cells with a comet tail in 100 randomly selected, non-overlapping cells visualized by standard light microscopy. […] Results of three experiments in duplicate are expressed as the mean of the number of cells with a comet tail (%)±SEM (*p<0.05 as compared with CA4P-untreated cells; n=3).

[4] = tested on: AML cell lines; assay: Annexin-V/propidium iodide apoptosis by flow cytometry; format: cell-based, human; details: 48 hours
Method: CA4P-treated AML cells were subjected to Annexin-V/propidium iodide (PI) staining and quantification by flow cytometry. Combretastatin A-4 phosphate (CA4P) induces caspase-independent apoptosis in leukemic cells. CA4P induces apoptosis of leukemic cells. Leukemic cells were treated with or without CA4P for 48 hours and the percentage of apoptotic leukemic cells was determined by Annexin V and propidium iodide staining using flow cytometry. Results are representative of three independent experiments. […] In the majority of AML cell lines tested, CA4P at a concentration of 5 nM induced phosphatidylserine externalization (Annexin V+) in more than 50% of the leukemic cells.

[5] = Bone marrow toxicity, serial complete blood counts; format: in vivo, CD1 mice; details: 25 mg/kg subcutaneously every other day for 4 weeks
Method: Eight week-old sex matched CD1 mice (Jackson Laboratory, Bar Harbor, Me.) were treated with CA4P at 25 mg/kg subcutaneously every other day for 4 weeks.

[6] = tested on: KG1a leukemic cells; assay: Cell cycle analysis with propidium iodide; format: cell-based, human; details: 5 and 10 nM, 48 hours
[7] = tested on: HL60 and U937 AML cells on HUVECs; assay: Leukemic cell adhesion to and co-culture with HUVECs; format: cell-based, human
Method: To assess leukemic cell adhesion, 1×10^5 GFP+HL60 or U937 cells in X-vivo/5% FBS were added per well. The percentage of GFP++adherent cells was quantified by fluorescent microscopy. To compare the resistance of vascular-adherent to non-adherent leukemic cells in co-culture, leukemic cells were seeded on either IL-1β-activated or non-activated HUVECs, with addition of CA4P. After 48 hours, GFP++leukemic cells were removed from the wells by trypsinization and quantified by fluorescence microscopy and flow cytometry. […] The number of adherent cells is expressed as a percentage of total leukemic cells and representative of three independent experiments performed in triplicate SEM (*p<0.05 as compared to CA4P-untreated control).
Survival of GFP+U937 (E) and HL60 (F) leukemic cells co-cultured with HUVECs is expressed as a percentage of total cells. Adherent (i.e. attached to IL-1β activated HUVECs) and non-adherent leukemic cells (i.e. cultured with non-activated HUVECs) are depicted. Results are representative of three independent experiments performed in triplicate±SEM (*p<0.05).

[8] = tested on: HL60 subcutaneous tumors; assay: Subcutaneous in vivo leukemia model; design: species or system NOD-SCID mice
Method: HL60 (5×10^6 cells) were injected subcutaneously into the dorsa of seven-week-old NOD-SCID mice (Jackson Laboratory). When mice bore a tumor (i.e. after 12 days), 4 experimental groups were randomized, each with 9 animals. Daily treatment was initiated at this time: the CA4P groups were subjected to intraperitoneal injection of CA4P at 10, 25 and 50 mg/kg body weight, and the control group received PBS. After a 3-day treatment, animals were sacrificed, tumors removed and then subjected to immunohistochemical analysis. Tumors were embedded in paraffin, serially sectioned, and stained with hematoxylin and eosin for histological analysis. Cell death was assessed by TUNEL assay. Cell death within paraffin-embedded tumor sections was detected by TUNEL reaction (Roche Diagnostics). The detection of cell death in this assay relies on the detection of free 3′OH DNA ends.
Tumors from mice treated with CA4P for 3 days were softer and hemorrhagic (particularly when treated with 50 mg/kg) than those observed in the control group. […] The control tumor sections were negative for TUNEL reaction. […] The extent of intra-tumor vascularization within the different groups was assessed by immunostaining for the endothelial-specific antigen MECA-32. […] The neo-vessel density was evaluated by microscopic counting of 5 fields at 10× magnification, and presented as mean number of microvessels per microscopic field±SEM (*p<0.05 as compared with the PBS control group; n=5). The decrease in intra-tumor vascularization induced by CA4P was dose dependent (54±13%, 68±6% and 90±3% decrease for 10, 25 and 50 mg/kg, respectively).

COc1ccc(/C=C\c2cc(OC)c(OC)c(OC)c2)cc1OP(=O)(O)O [CA4P, combretastatin A-4 phosphate]
intracellular ROS (H2DCFDA fluorescence) [1]: rapid accumulation of superoxide anions | CD34+ cell viability (Annexin/PI staining) ([2]; 48 h with SCF 50 ng/ml): only minimal effect on cell viability | colony-forming potential of CD34+ cells ([2]; methylcellulose, 14 days): did not impair colony-forming potential | number of leukemic cells displaying a comet tail [3]: strongly increased | leukemic cells with phosphatidylserine externalization (Annexin V+) ([4]; 5 nM, majority of AML cell lines tested): more than 50% | PI+, Annexin V(−) cells (necrotic) [4]: Only a small number | WBC and absolute neutrophil count [5]: slight decrease | cell cycle effect [6]: G2/M arrest | attachment of HL60 and U937 AML cells to HUVECs ([7]; in vitro): decreased attachment | sensitivity of leukemic cells to CA4P with decreased adhesion to HUVECs ([7]; non-adherent vs adherent to IL-1β activated HUVECs, 48 hours): more sensitive | decrease in intra-tumor vascularization (MECA-32 microvessel density) ([8]; 10 mg/kg i.p. daily, 3 days): 54±13% | decrease in intra-tumor vascularization (MECA-32 microvessel density) ([8]; 25 mg/kg i.p. daily, 3 days): 68±6% | decrease in intra-tumor vascularization (MECA-32 microvessel density) ([8]; 50 mg/kg i.p. daily, 3 days): 90±3% | tumor histology ([8]; 10, 25 and 50 mg/kg, 3 days): largely necrotic | cell death in tumor sections (TUNEL) ([8]; low to high doses, data not shown): most of the leukemic cells were non-viable
